For the assay, the target named is T1, PTP-1B (Homo sapiens, UniProt P18031).
T1 construct: PTP-1B (purified, 1 mg/mL) as a 1:250 dilution
T1 sequence (P18031 1-321 limits assumed): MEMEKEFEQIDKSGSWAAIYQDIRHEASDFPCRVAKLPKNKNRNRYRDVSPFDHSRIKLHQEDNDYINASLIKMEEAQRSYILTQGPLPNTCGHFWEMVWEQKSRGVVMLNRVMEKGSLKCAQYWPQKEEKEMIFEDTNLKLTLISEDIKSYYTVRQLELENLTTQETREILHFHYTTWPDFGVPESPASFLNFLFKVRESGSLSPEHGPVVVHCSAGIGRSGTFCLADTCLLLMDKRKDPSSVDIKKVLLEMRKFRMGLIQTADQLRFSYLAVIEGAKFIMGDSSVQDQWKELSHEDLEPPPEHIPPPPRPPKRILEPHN
As to the kind of experiment: pNPP tyrosine phosphatase inhibition assay, PTP-1B. The settings on record: pNPP assay, PTP-1B; read-out: Activity Class (IC50 ranges). Type of assay: biochemical. The procedure:
The compounds provided herein are evaluated for biological activity as inhibitors of PTP-1B using, for example, a pNPP assay can be used to screen compounds for tyrosine phosphatase inhibitory activity as described in the Examples.
A 5× stock of pNPP (p-nitrophenol phosphate) substrate is prepared as 50 mM pNPP in assay buffer. Various tyrosine phosphatase solutions can be prepared as follows: • PTP-1B (purified, 1 mg/mL) as a 1:250 dilution (to a final concentration of 4:g/mL); • TC-PTP (NEB, 1000 units in 100:L) as a 1:50 dilution (to a final concentration of 2U/10:L (4:g/mL)); • CD45 (Calbiochem, 20:g, 400 units in 100:L) as a 1:50 dilution (to a final concentration of 0.8U/10:L (4:g/mL)); • LAR (NEB, 1000 units in 200:L) as a 1:75 dilution (to a final concentration of 0.7U/10:L (4:g/mL)); and • PTP-β (UBI, #14-350, 10,000 units, 40:g/571:L) as a 1:17.5 dilution (to a final concentration of 10U/10:L (4:g/mL));
The compound to be tested is prepared as 1:16.7 and 1:50 dilutions from stock in a total volume of […] DMSO to give final concentrations of 626 and 200:M. The reaction mixtures are prepared in a 96-well microtiter plate (on ice) as 55:L assay buffer, 5:L of the diluted compound (to a final concentration of 31.3 and 10:M), 20:L of the pNPP substrate solution (to a final concentration of 10 mM) and 20:L PTPase in assay buffer. The reactants are mixed well, the plate placed in a water bath at 30° C. and incubated for 10 minutes. The reaction is then terminated by adding 100:L of 2M K2CO3 per well, and the absorbance is measured at 405 nm by conventional means.
Unless otherwise indicated, this assay was used to determine activity for the selected compounds whose activity is provided in Table 1.
As usually defined, the IC50 is the point on the concentration scale where inhibition reaches its midpoint. `O=P(O)(O)C(F)(F)c1ccc(CN(Cc2ccc(C(F)(F)P(=O)(O)O)cc2)S(=O)(=O)c2cccc(Cl)c2)cc1` [Compound 76, {[4-({(3-Chloro-benzenesulfonyl)-[4-(difluoro-phosphono-methyl)-benzyl]-amino}-methyl)-phenyl]-difluoro-methyl}-phosphonic acid]: the IC50 was in the range of 250 to 499 nM.
To `COc1ccccc1S(=O)(=O)N(Cc1ccc(Cl)c(Cl)c1)Cc1ccc(NC(=O)C(=O)O)c(C(=O)O)c1` [Compound 56, 5-{[(3,4-Dichloro-benzyl)-(2-methoxy-benzenesulfonyl)-amino]-methyl}-2-(oxalyl-amino)-benzoic acid] belongs over 25000 nM; to `COc1ccccc1S(=O)(=O)N(Cc1ccc(-c2nnn[nH]2)cc1)Cc1ccc(S(C)(=O)=O)cc1` [Compound 115, N-(4-Methanesulfonyl-benzyl)-2-methoxy-N-[4-(1H-tetrazol-5-yl)-benzyl]-benzenesulfonamide], over 25000 nM; to `O=C(O)c1ccc(CN(Cc2ccc(C(F)(F)P(=O)(O)O)c(Cl)c2)S(=O)(=O)c2ccccc2)cc1` [Compound 235, 4-({Benzenesulfonyl-[3-chloro-4-(difluoro-phosphono-methyl)-benzyl]-amino}-methyl)-benzoic acid], 250 to 499 nM.
With `O=P(O)(O)C(F)(F)c1ccc(CN(Cc2ccc(Cl)c(Cl)c2)S(=O)(=O)c2ccccc2)cc1Br` [Compound 68, [(4-{[Benzenesulfonyl-(3,4-dichloro-benzyl)-amino]-methyl}-2-bromo-phenyl)-difluoro-methyl]-phosphonic acid] the figure was 250 to 499 nM.
To `O=P(O)(O)C(F)(F)c1ccc(CN(Cc2ccc(C(F)(F)P(=O)(O)O)cc2)S(=O)(=O)Cc2ccccc2)cc1` [Compound 69, {[4-({[4-(Difluoro-phosphono-methyl)-benzyl]-phenylmethanesulfonyl-amino}-methyl)-phenyl]-difluoro-methy}-phosphonic acid] belongs 2500 to 25000 nM.
Consider `COC(=O)c1ccccc1S(=O)(=O)N(Cc1ccc(C(F)(F)P(=O)(O)O)cc1)Cc1ccc(C(F)(F)P(=O)(O)O)cc1` [Compound 92, 2-{Bis-[4-(difluoro-phosphono-methyl)-benzyl]-sulfamoyl}-benzoic acid methyl ester], for which the IC50 lay in the range of 2500 to 25000 nM.
With `COc1ccccc1S(=O)(=O)N(Cc1ccc(-c2ccc3c(c2)C(=O)OC3)cc1)Cc1ccc(C(F)(F)P(=O)(O)O)c(Cl)c1` [Compound 197, 6-{4-[({[4-(difluorophosphonomethyl)-3-chlorophenyl]methyl}[(2-methoxyphenyl)sulfonyl]amino)methyl]phenyl}-3-hydroisobenzofuran-1-one] the figure was 100 to 249 nM; with “4-{2-[({[4-(difluorophosphonomethyl)-3-chlorophenyl]methyl}[(2-methoxyphenyl)sulfonyl]amino)methyl]phenyl}benzamide [Compound 199]”, under 99 nM.
Take `COc1ccccc1S(=O)(=O)N(Cc1ccc(C#N)cc1)Cc1ccc(N(S(=O)(=O)C(F)(F)F)S(=O)(=O)C(F)(F)F)cc1` [Compound 112, N-(4-[bis(N-trifluoro-methanesulfonyl)amino]benzyl)-N-(4-cyanobenzyl)-(2-methoxy)benzenesulfonamide]: the half-inhibitory concentration (IC50) is over 25000 nM.
In the case of `CCOC(=O)[C@H](C)NP(=O)(O)C(F)(F)c1ccc(CN(Cc2ccc(-c3cccc(C#N)c3)cc2)S(=O)(=O)c2ccccc2OC)cc1Cl` [Compound 219, [S]-N-[(2-Chloro-4-{[(3′-cyano-biphenyl-4-ylmethyl)-(2-methoxy-benzenesulfonyl)-amino]-methyl}-phenyl)-difluoro-methyl]-phosphonyl-(ethyl alaninate)], the IC50 was in the range of 250 to 499 nM.
With `COc1ccccc1S(=O)(=O)N(CCc1cccc(-c2cccc(C(=O)O)c2)c1)Cc1ccc(C(F)(F)P(=O)(O)O)c(Cl)c1` [Compound 189, 3′-{2-[[3-Chloro-4-(difluoro-phosphono-methyl)-benzyl]-(2-methoxy-benzenesulfonyl)-amino]-ethyl}-biphenyl-3-carboxylic acid] the figure was 250 to 499 nM.
With `COc1ccccc1S(=O)(=O)N(Cc1ccc(-c2cccc(C#N)c2)cc1)Cc1ccc(C(F)(F)P(=O)(OCOC(=O)C(C)(C)C)OCOC(=O)C(C)(C)C)c(Cl)c1` [Compound 226, 2,2-Dimethyl-propionic acid [(2-chloro-4-{[(3′-cyano-biphenyl-4-ylmethyl)-(2-methoxy-benzenesulfonyl)-amino]-methyl}-phenyl)-difluoro-methyl]-(2,2-dimethyl-propionyloxymethoxy)-phosphinoyloxymethyl ester] the figure was over 25000 nM; with `O=C(O)c1ccc(CN(Cc2ccc(Cl)c(Cl)c2)S(=O)(=O)c2ccccc2Cl)cc1Br` [Compound 94, 2-Bromo-4-{[(2-chloro-benzenesulfonyl)-(3,4-dichloro-benzyl)-amino]-methyl}-benzoic acid], over 25000 nM.
To `COc1ccccc1S(=O)(=O)N(Cc1ccc(C(F)(F)P(=O)(O)O)c(Cl)c1)Cc1ccccc1-c1ccncc1` [Compound 180, [(2-Chloro-4-{[(2-methoxy-benzenesulfonyl)-(2-pyridin-4-yl-benzyl)-amino]-methyl}-phenyl)-difluoro-methyl]-phosphonic acid] belongs 100 to 249 nM; to `COc1ccccc1S(=O)(=O)N(Cc1ccc(C(O)C(=O)O)cc1)Cc1ccc(S(C)(=O)=O)cc1` (stereo not drawn) [Compound 127, Hydroxy-(4-{[(4-methanesulfonyl-benzyl)-(2-methoxy-benzenesulfonyl)-amino]-methyl}-phenyl)-acetic acid], over 25000 nM.
`COC(=O)c1cccc(-c2cccc(CCN(Cc3ccc(C(F)(F)P(=O)(O)O)c(Cl)c3)S(=O)(=O)c3ccccc3OC)c2)c1` [Compound 185, 3′-{2-[[3-Chloro-4-(difluoro-phosphono-methyl)-benzyl]-(2-methoxy-benzenesulfonyl)-amino]-ethyl}-biphenyl-3-carboxylic acid methyl ester]: the IC50 was in the range of 250 to 499 nM.
With `O=C(NS(=O)(=O)C(F)(F)F)c1ccc(CN(Cc2ccc(Cl)c(Cl)c2)S(=O)(=O)c2ccccc2Cl)cc1Br` [Compound 95, N-(3-Bromo-4-trifluoromethanesulfonylaminocarbonyl-benzyl)-2-chloro-N-(3,4-dichloro-benzyl)-benzenesulfonamide] the figure was over 25000 nM.
To `COc1ccccc1S(=O)(=O)N(Cc1ccc(-c2ccc(O)c(C(=O)O)c2)cc1)Cc1ccc(OCC(=O)O)c(Cl)c1` [Compound 222, 4′-{[(4-Carboxymethoxy-3-chloro-benzyl)-(2-methoxy-benzenesulfonyl)-amino]-methyl}-4-hydroxy-biphenyl-3-carboxylic acid] belongs over 25000 nM; to `COc1ccccc1S(=O)(=O)N(Cc1ccc(N(C)C(=O)C(=O)O)cc1)Cc1ccc(N(C)C(=O)C(=O)O)cc1` [Compound 141, N-[4-({(2-Methoxy-benzenesulfonyl)-[4-(methyl-oxalyl-amino)-benzyl]-amino}-methyl)-phenyl]-N-methyl-oxalamic acid], over 25000 nM; to `O=P(O)(O)C(F)(F)c1ccc(CN(Cc2ccc(-c3cccc(-c4nn[nH]n4)c3)cc2)S(=O)(=O)c2ccc3ccccc3c2)cc1Cl` [Compound 158, {[2-Chloro-4-({(naphthalene-2-sulfonyl)-[3′-(2H-tetrazol-5-yl)-biphenyl-4-ylmethyl]-amino}-methyl)-phenyl]-difluoro-methyl}-phosphonic acid], under 99 nM.
